Source: PubChem BioAssay (NCI)
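Where inhibition never reached the appropriate level, the endpoint shown equals the highest concentration tested. Otherwise, values were interpolated linearly from a five-concentration, 48-hour dose response in 96-well plates. TGI: total growth inhibition.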

Legend:
Assay in all cases: DTP human tumour cell line panel, 48 h
786-0 renal = tested on: 786-0 renal
A498 renal = tested on: A498 renal
A549 NSCLC = tested on: A549 NSCLC
ACHN renal = tested on: ACHN renal
BT-549 breast = tested on: BT-549 breast
CAKI-1 renal = tested on: CAKI-1 renal
CCRF-CEM leukemia = tested on: CCRF-CEM leukemia
COLO 205 colon = tested on: COLO 205 colon
DU-145 prostate = tested on: DU-145 prostate
EKVX NSCLC = tested on: EKVX NSCLC
HCC-2998 colon = tested on: HCC-2998 colon
HCT-116 colon = tested on: HCT-116 colon
HCT-15 colon = tested on: HCT-15 colon
HL-60(TB) leukemia = tested on: HL-60(TB) leukemia
HOP-62 NSCLC = tested on: HOP-62 NSCLC
HS 578T breast = tested on: HS 578T breast
HT29 colon = tested on: HT29 colon
K-562 leukemia = tested on: K-562 leukemia
KM12 colon = tested on: KM12 colon
LOX IMVI melanoma = tested on: LOX IMVI melanoma
M14 melanoma = tested on: M14 melanoma
MALME-3M melanoma = tested on: MALME-3M melanoma
MCF7 breast = tested on: MCF7 breast
MDA-MB-231 breast = tested on: MDA-MB-231 breast
MDA-MB-435 = tested on: MDA-MB-435
MDA-N = tested on: MDA-N
MOLT-4 leukemia = tested on: MOLT-4 leukemia
NCI-H226 lung = tested on: NCI-H226 lung
NCI-H23 lung = tested on: NCI-H23 lung
NCI-H460 lung = tested on: NCI-H460 lung
NCI-H522 lung = tested on: NCI-H522 lung
OVCAR-3 ovarian = tested on: OVCAR-3 ovarian
OVCAR-4 ovarian = tested on: OVCAR-4 ovarian
OVCAR-5 ovarian = tested on: OVCAR-5 ovarian
OVCAR-8 ovarian = tested on: OVCAR-8 ovarian
PC-3 prostate = tested on: PC-3 prostate
RPMI-8226 leukemia = tested on: RPMI-8226 leukemia
RXF 393 renal = tested on: RXF 393 renal
SF-268 CNS = tested on: SF-268 CNS
SF-295 CNS = tested on: SF-295 CNS
SF-539 CNS = tested on: SF-539 CNS
SK-MEL-2 melanoma = tested on: SK-MEL-2 melanoma
SK-MEL-28 melanoma = tested on: SK-MEL-28 melanoma
SK-MEL-5 melanoma = tested on: SK-MEL-5 melanoma
SK-OV-3 ovarian = tested on: SK-OV-3 ovarian
SN12C renal = tested on: SN12C renal
SNB-19 CNS = tested on: SNB-19 CNS
SNB-75 CNS = tested on: SNB-75 CNS
SR leukemia = tested on: SR leukemia
SW-620 colon = tested on: SW-620 colon
T-47D breast = tested on: T-47D breast
TK-10 renal = tested on: TK-10 renal
U251 CNS = tested on: U251 CNS
UACC-257 melanoma = tested on: UACC-257 melanoma
UACC-62 melanoma = tested on: UACC-62 melanoma
UO-31 renal = tested on: UO-31 renal

Measured: TGI

N#CC[C@@H](O)COc1ccccc1
> 100 µM: 786-0 renal | A498 renal | A549 NSCLC | ACHN renal | BT-549 breast | CAKI-1 renal | CCRF-CEM leukemia | COLO 205 colon | DU-145 prostate | EKVX NSCLC | HCC-2998 colon | HCT-116 colon | HCT-15 colon | HL-60(TB) leukemia | HOP-62 NSCLC | HS 578T breast | HT29 colon | K-562 leukemia | KM12 colon | LOX IMVI melanoma | M14 melanoma | MALME-3M melanoma | MCF7 breast | MDA-MB-231 breast | MDA-MB-435 | MDA-N | MOLT-4 leukemia | NCI-H226 lung | NCI-H23 lung | NCI-H460 lung | NCI-H522 lung | OVCAR-3 ovarian | OVCAR-4 ovarian | OVCAR-5 ovarian | OVCAR-8 ovarian | PC-3 prostate | RPMI-8226 leukemia | RXF 393 renal | SF-268 CNS | SF-295 CNS | SF-539 CNS | SK-MEL-2 melanoma | SK-MEL-28 melanoma | SK-MEL-5 melanoma | SK-OV-3 ovarian | SN12C renal | SNB-19 CNS | SNB-75 CNS | SR leukemia | SW-620 colon | T-47D breast | TK-10 renal | U251 CNS | UACC-257 melanoma | UACC-62 melanoma | UO-31 renal
